Where no end group is shown, it is not given here. [ ]: non-standard residue; d: D form. pS = N[C@@H](COP(=O)(O)O)C(=O)O Where only a bound is given, the exact number is not on record here.

As a reminder, the Kd is the concentration at which binding is half-saturated.

Test [1] concerns the target T1, CIN85 SH3C domain (Homo sapiens, UniProt Q96B97).
T1 construct: His7 (with TEV protease cleavage site) (N, cleaved yes); made in house; host or cells: Escherichia coli BL21(DE3)
T1 sequence (Q96B97 267-328 limits assumed): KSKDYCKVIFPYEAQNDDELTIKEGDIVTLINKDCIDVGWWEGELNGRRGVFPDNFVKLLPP
Nature of the test: NMR titration (chemical shift perturbations) of 15N-labeled SH3C domain with synthetic CIN85-PRM1 peptides. The test is classed as binding. The following applies: for difference in binding energy compared to wild-type peptide (ΔΔG, net energetic contribution of the mutated residue): calculated from the KD's of mutant and wild-type peptide to SH3C; for fold increase of KD compared to wild-type peptide: mutant peptide binding to SH3C domain. The source says: (§1) The recognition of PRM by SH3 domains typically depends on the presence of positively charged residues, such as arginines at the motif’s N- or C-terminus, which often form cation−π interactions with conserved tryptophan residues in the SH3 binding interface.[30] […] We therefore used CIN85-PRM1 mutant peptide binding to the SH3C domain to determine the role of both arginines (R227 and R229) in this interaction. […] Because we knew that this interaction was in part driven by cation−π interactions, we anticipated a net energetic contribution on the order of −12 ± 6 kJ/mol if such an interaction would be disturbed by the mutation.[32] […] In the context of the whole protein, local concentration and/or cooperative effects could increase the actual strength of this interaction considerably. The residue S230 is adjacent to R229 and a known site for activation-induced phosphorylation in CIN85[33],[34] (see also Figure S4). To investigate the effect of S230s involvement in this interaction, we incorporated a phosphoserine (pS230), a S230D, and a S230A mutation into the synthetic peptide.
(§2) with 1000 resampled datasets with replacement. After obtaining the dissociation constant, the
(§3) Gibbs free energy of this interaction was calculated using the following relation: […]
(§4) Their difference in free energy can then be calculated as follows: […]
(§5) The value of ∆∆G here has the meaning of the stability contribution or net energetic contribution
(§6) of the residue that was mutated. […]

In test [2] the target is T2, CIN85 SH3B domain (Homo sapiens, UniProt Q96B97).
T2 construct: GST (with thrombin cleavage site) (N); made in house; host or cells: Escherichia coli BL21(DE3)
T2 sequence (Q96B97 98-157 limits assumed): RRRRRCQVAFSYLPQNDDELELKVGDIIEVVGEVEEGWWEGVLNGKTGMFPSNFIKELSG
Nature of the test: NMR titration (chemical shift perturbations) of 15N-labeled SH3B domain with synthetic CIN85-PRM1 peptide. Type of test: binding. The following applies: isolated SH3B domain, CSP of 15N-labeled domain, error of fitted KD from bootstrap resampling, read-out: KD (mM), binary SH3:peptide interaction.
Source text: (§7) We further used NMR titrations to assess the interaction of CIN85-PRM1 with isolated SH3 domains of CIN85, observing chemical shift perturbations (CSP) in the ^15N-labeled SH3 domains upon titration with a synthetic 14-residue peptide of the sequence ^219FKDKPIKLRPRSIE^232 (see Figure S2). […] We mapped the CSP onto the first model of the NMR structure of SH3C (PDB: 2k9g) in Figure 2A. Binding to the CIN85-PRM1 peptide occurs through the conserved binding site, involving the RT-loop (residues 278–292), the N-Src-loop (residues 300–307), and also the 3_10-helix (residues 320–322) of SH3C (see Figure 2B). […]
(§8) with 1000 resampled datasets with replacement. After obtaining the dissociation constant, the Gibbs free energy of this interaction was calculated using the following relation: […]
(§9) with R as the ideal gas constant (8.314 Jmol−1K−1) and T as the absolute temperature in K. This quantity is useful when comparing two similar interactions that differ in their KD, i.e. variants of the same peptide that have a single-point mutation or a post-translational modification (PTM) and […]
as §4
(§10) Determination of rotational correlation times and translational diffusion coefficients Residue-specific cross-correlated relaxation rates were determined at 800 MHz via the 2D TRACT experiment1, 12-13,using variable delays from 1-190 ms. […]

Test [3] addresses T3, CIN85 SH3A domain (Homo sapiens, UniProt Q96B97).
T3 construct: GST (with thrombin cleavage site) (N); made in house; host or cells: Escherichia coli BL21(DE3)
T3 sequence (Q96B97 1-58 limits assumed): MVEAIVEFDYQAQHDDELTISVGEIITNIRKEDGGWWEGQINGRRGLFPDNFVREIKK
Nature of the test: NMR titration (chemical shift perturbations) of 15N-labeled SH3A domain with synthetic CIN85-PRM1 peptide. The test is classed as binding. The note with it: isolated SH3A domain, CSP of 15N-labeled domain, error of fitted KD from bootstrap resampling, read-out: KD (mM), binary SH3:peptide interaction.
Source text: as §7, §8, §9, §4, §10

The test system of test [4] is CIN85 SH3C domain. Nature of the test: NMR titration (chemical shift perturbations) of 15N-labeled SH3C domain with synthetic CIN85-PRM1 peptides. Type of test: binding, human. The following applies: same peptide.
Source text: as §1, §2, §3, §4, §5, §6

Test [5] deals with T4, CIN85 SH3C domain (human, UniProt Q96B97-1 262-333).
T4 construct: the NMR structure PDB 2k9g of SH3C was used to map the shifts; 15N-labelled for NMR; The limits of PDB 2k9g may differ from those of the construct; also called C-terminal SH3 domain
T4 sequence: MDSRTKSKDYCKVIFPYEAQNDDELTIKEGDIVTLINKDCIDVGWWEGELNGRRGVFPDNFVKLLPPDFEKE
Nature of the test: NMR titration; 15N-labelled isolated SH3 domain titrated with synthetic 14-residue peptide; chemical shift perturbations; KD fitted, error by bootstrap resampling. The following applies: both partners purified.

Test [6] deals with T5, CIN85 SH3B domain (human).
T5 chain: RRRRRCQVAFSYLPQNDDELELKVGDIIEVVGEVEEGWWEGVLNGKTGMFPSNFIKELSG
The test is described as above. The following applies: both partners purified.

Test [7] concerns the target T6, CIN85 SH3A domain (human).
T6 chain: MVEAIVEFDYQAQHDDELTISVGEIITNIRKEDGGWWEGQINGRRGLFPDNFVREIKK
Described as above. The note with it: both partners purified.

With “Ac-FKDKPIKLRPASIE-NH2 [^219FKDKPIKLRPASIE^232]”, on CIN85 SH3C domain [1], the “difference in binding energy compared to wild-type peptide (ΔΔG, net energetic contribution of the mutated residue)” value is 1.51 ± 0.239 kcal/mol and the “fold increase of KD compared to wild-type peptide” value is 12 fold.

With “Ac-FKDKPIKLRPRSIE-NH2 [^219FKDKPIKLRPRSIE^232]”, the Kd on CIN85 SH3B domain [2] amounted to 1.09 ± 0.05 mM; at CIN85 SH3A domain [3], 0.73 ± 0.02 mM. For the same molecule, the “fold lower dissociation constant (KD) of SH3C than SH3A” value with CIN85 SH3C domain [4] (SH3C versus SH3A) was found to be 3 fold. Moreover, the “fold lower dissociation constant (KD) of SH3C than SH3B” value with CIN85 SH3C domain [4] (SH3C versus SH3B) is 5 fold. Regarding “Ac-FKDKPIKLAPRSIE-NH2 [^219FKDKPIKLAPRSIE^232]”, at CIN85 SH3C domain [1], the “difference in binding energy compared to wild-type peptide (ΔΔG, net energetic contribution of the mutated residue)” value was 0.784 ± 0.0478 kcal/mol and the “fold increase of KD compared to wild-type peptide” value is given as 4 fold.

Regarding “Ac-FKDKPIKLAPASIE-NH2 [^219FKDKPIKLAPASIE^232]”, the Kd on CIN85 SH3C domain [1] (isolated SH3C domain, NMR titration, CSP of 15N-labeled domain, error of fitted KD from bootstrap resampling, read-out: KD (mM), binary SH3:peptide interaction) was more than 2.45 mM.

B1: CIN85-PRM1 peptide pS230 (residues 219-232) (peptide)
peptide: FKDKPIKLRPR[pS]IE
notes: CIN85, human, residues 219-232 with phosphoserine at S230; also called pS230 peptide; source: synthetic peptide
Turning to B1, in the test with CIN85 SH3C domain [5], the equilibrium dissociation constant (Kd) was 2350 µM.

B2: CIN85-PRM1 peptide, wild type (residues 219-232) (peptide)
peptide: FKDKPIKLRPRSIE
notes: CIN85, human, residues 219-232 of the linker between SH3B and SH3C, holding the proline-rich motif CIN85-PRM1; also called wild-type CIN85-PRM1 peptide; source: synthetic peptide
For B2, the dissociation constant Kd amounted to 210 µM in the test with CIN85 SH3C domain [5], 1090 µM with CIN85 SH3B domain [6] and 730 µM in the test with CIN85 SH3A domain [7].

B3: CIN85-PRM1 peptide R227A (residues 219-232) (peptide)
peptide: FKDKPIKLAPRSIE
notes: CIN85, human, residues 219-232 with R227A; also called R227A mutant peptide; source: synthetic peptide
For the molecule B3, in the test with CIN85 SH3C domain [5], the Kd was found to be 750 µM.

B4: CIN85-PRM1 peptide R229A (residues 219-232) (peptide)
peptide: FKDKPIKLRPASIE
notes: CIN85, human, residues 219-232 with R229A; also called R229A mutant peptide; source: synthetic peptide
Consider B4, for which, in the test with CIN85 SH3C domain [5], the Kd was determined as 2450 µM.

B5: CIN85-PRM1 peptide R227A/R229A (residues 219-232) (peptide)
peptide: FKDKPIKLAPASIE
notes: CIN85, human, residues 219-232 with R227A and R229A; also called R227A/R229A mutant peptide; source: synthetic peptide
With B5, the Kd with CIN85 SH3C domain [5] was more than 2450 µM.

B6: CIN85-PRM1 peptide S230D (residues 219-232) (peptide)
peptide: FKDKPIKLRPRDIE
notes: CIN85, human, residues 219-232 with the phosphomimetic S230D; also called S230D peptide; source: synthetic peptide
As to B6, the Kd in the test with CIN85 SH3C domain [5] came to 710 µM.

B7: CIN85-PRM1 peptide S230A (residues 219-232) (peptide)
peptide: FKDKPIKLRPRAIE
notes: CIN85, human, residues 219-232 with S230A; also called S230A peptide; source: synthetic peptide
As for B7, the Kd in the test with CIN85 SH3C domain [5] was 200 µM.
